In patent US9056843B2, “Trifluoromethyl-oxadiazole derivatives and their use in the treatment of disease” (NOVARTIS AG, priority 2011, dated 2015):

Experiments:
Assay type in all cases: biochemical
Human recombinant HDAC4 = Human recombinant HDAC4 (Homo sapiens (Human), UniProt P56524); test: Test 2: HDAC4 assay (fluorogenic substrate, 5 μM acetyl-Gly-Ala-Lys(ε-trifluoroacetyl)-AMC); details: Test 2 (values without asterisk)
Description: Test 2: HDAC4 Assay Description
(§1) Control wells with HDAC4 only (positive control) and without HDAC4 (negative control) were included on the microplate. Bovine trypsin (4.5 μl of a 300 nM solution) was added and the plate incubated for additional 15 minutes at room temperature. The plate was placed in a fluorescence microplate reader, and read at an excitation wavelength of 360 nm and an emission wavelength of 450 nm with a 10 nm bandpath. Fluorescence values for all wells containing HDAC4 (positive control and wells with test compound) were corrected by subtracting negative control fluorescence values, and IC50 values were calculated by fitting the dose-response curves to a 4-parameter logistic function.

[1] = target: Human recombinant full length HDAC1 (Homo sapiens (Human), UniProt Q13547); test: Test 3: HDAC1 assay; details: substrate 5 μM acetyl-Gly-Ala-Lys(acetyl)-AMC
Description: as §1
Test 3: HDAC1 Assay Description
A similar assay procedure as described in Test 2 was used for HDAC1. Human recombinant full length HDAC1 expressed in a baculovirus expression system was purchased from BPS BioSciences (San Diego, Calif., U.S.A.). The substrate used in the […] assay was 5 μM of acetyl-Gly-Ala-Lys(acetyl)-AMC.

[2] = target: Human recombinant full length HDAC6 (Homo sapiens (Human), UniProt Q9UBN7); test: Test 4: HDAC6 assay; details: Test 4; substrate 5 μM acetyl-Gly-Ala-Lys(acetyl)-AMC
Description: as §1
Test 4: HDAC6 Assay Description
A similar assay procedure as described in Test 2 was used for HDAC6. Human recombinant full length HDAC6 expressed in a baculovirus expression system was purchased from BPS BioSciences (San Diego, Calif., U.S.A.). The substrate used in the […] assay was 5 μM of acetyl-Gly-Ala-Lys(acetyl)-AMC.

Chain of Human recombinant HDAC4 (P56524 2-1084): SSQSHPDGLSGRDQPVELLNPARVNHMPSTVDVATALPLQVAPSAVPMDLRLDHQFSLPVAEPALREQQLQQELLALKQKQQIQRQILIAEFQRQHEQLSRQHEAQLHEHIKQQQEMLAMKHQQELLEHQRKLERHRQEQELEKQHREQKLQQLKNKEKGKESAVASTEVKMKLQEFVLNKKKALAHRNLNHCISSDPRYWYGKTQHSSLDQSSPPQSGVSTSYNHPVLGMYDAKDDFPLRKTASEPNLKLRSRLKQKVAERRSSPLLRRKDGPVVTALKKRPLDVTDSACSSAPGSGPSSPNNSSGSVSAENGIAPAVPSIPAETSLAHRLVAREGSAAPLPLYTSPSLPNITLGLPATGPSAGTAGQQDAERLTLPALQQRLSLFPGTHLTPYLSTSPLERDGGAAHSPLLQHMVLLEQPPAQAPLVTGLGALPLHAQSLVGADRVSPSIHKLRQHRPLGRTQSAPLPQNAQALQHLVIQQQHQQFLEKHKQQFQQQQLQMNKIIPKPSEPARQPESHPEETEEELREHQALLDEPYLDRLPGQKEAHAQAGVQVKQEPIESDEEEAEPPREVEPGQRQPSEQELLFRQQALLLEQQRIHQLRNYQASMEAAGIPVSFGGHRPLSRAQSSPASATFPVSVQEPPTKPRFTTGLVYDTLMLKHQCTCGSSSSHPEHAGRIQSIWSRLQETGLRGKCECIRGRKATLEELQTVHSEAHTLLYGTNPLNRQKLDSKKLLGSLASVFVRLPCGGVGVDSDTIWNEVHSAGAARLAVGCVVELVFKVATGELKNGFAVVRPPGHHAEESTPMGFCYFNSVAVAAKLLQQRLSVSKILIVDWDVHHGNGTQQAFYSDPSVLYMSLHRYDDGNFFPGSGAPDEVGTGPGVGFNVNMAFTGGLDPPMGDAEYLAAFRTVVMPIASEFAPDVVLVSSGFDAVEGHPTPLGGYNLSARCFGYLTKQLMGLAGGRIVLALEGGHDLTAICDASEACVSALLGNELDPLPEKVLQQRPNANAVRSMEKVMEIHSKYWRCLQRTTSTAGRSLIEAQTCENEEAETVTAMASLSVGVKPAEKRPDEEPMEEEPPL
Chain of Human recombinant full length HDAC1 (Q13547 whole entry): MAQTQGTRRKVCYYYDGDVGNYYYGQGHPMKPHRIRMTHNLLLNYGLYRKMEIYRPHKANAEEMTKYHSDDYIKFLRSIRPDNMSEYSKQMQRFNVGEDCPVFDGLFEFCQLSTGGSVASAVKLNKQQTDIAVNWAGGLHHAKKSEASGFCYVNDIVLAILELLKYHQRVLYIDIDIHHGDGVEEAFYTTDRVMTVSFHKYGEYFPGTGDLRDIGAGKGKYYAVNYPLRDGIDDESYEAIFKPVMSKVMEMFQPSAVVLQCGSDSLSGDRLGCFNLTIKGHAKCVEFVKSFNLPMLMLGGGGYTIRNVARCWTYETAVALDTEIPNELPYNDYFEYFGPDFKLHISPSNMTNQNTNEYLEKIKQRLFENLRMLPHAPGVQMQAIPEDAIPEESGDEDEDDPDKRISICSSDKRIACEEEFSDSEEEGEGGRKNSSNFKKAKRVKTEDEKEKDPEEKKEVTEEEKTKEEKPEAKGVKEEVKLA
Chain of Human recombinant full length HDAC6 (Q9UBN7 whole entry): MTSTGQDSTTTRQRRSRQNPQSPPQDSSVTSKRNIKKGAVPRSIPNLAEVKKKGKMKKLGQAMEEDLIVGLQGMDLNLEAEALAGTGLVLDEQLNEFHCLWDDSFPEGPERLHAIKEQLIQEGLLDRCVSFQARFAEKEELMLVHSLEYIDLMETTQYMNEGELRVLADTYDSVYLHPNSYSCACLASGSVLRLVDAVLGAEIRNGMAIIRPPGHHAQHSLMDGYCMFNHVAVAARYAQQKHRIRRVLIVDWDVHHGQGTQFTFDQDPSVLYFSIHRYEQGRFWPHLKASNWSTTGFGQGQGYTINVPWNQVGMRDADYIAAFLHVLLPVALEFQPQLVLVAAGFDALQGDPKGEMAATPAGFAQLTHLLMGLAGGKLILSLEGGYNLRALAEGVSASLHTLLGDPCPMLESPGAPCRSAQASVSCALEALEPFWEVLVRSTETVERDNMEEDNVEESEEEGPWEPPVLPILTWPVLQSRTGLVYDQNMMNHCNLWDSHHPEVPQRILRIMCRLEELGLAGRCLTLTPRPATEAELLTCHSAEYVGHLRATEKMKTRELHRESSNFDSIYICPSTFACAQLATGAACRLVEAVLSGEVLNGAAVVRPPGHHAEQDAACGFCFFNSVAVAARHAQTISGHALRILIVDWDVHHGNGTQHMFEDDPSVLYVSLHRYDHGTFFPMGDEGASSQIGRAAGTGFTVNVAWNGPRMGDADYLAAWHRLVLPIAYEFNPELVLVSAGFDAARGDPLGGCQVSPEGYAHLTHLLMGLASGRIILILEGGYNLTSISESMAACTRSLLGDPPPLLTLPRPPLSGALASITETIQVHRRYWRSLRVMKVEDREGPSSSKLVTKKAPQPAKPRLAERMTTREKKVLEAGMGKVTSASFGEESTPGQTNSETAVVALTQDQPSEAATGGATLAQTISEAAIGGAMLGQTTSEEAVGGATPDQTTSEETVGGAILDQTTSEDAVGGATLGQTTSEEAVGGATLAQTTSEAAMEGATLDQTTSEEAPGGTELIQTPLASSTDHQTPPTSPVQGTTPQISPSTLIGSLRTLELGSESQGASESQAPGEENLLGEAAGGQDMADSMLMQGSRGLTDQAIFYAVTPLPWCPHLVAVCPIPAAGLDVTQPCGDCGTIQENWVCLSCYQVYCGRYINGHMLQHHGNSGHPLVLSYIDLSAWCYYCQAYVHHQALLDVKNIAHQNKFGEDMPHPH

Compound | IC50 (Human recombinant HDAC4) [µM] | IC50 [1] [µM] | IC50 [2] [µM]
O=C(Nc1cccnc1)c1ccc(-c2noc(C(F)(F)F)n2)cc1 [Example 48, N-(ppyridin-3-yl)-4-(5-(trifluoromethyl)-1,2,4-oxadiazol-3-yl)benzamide] | 0.14 | > 10 | 4.8
CC(C)N(C)C[C@@H](C)NC(=O)c1ccc(-c2noc(C(F)(F)F)n2)cc1 [Example 138, (R)—N-(1-(isopropyl(methyl)amino)propan-2-yl)-4-(5-(trifluoromethyl)-1,2,4-oxadiazol-3-yl)benzamide] | 0.0045 | > 10 | > 10
Cc1cc(NC(=O)c2ccc(-c3noc(C(F)(F)F)n3)cc2)cc(C)n1 [Example 68, N-(2,6-dimethylpyridin-4-yl)-4-(5-(trifluoromethyl)-1,2,4-oxadiazol-3-yl)benzamide] | 0.17 | > 10 | 5.3
O=C(NC1CCCC1)c1ccc(-c2noc(C(F)(F)F)n2)cc1 [Example 29, N-cyclopentyl-4-(5-(trifluoromethyl)-1,2,4-oxadiazol-3-yl)benzamide] | 1.2 | > 10 | > 10
C[C@H](CN(C)C)NC(=O)c1ccc(-c2noc(C(F)(F)F)n2)cc1F [Example 88, (R)—N-(1-(dimethylamino)propan-2-yl)-2-fluoro-4-(5-(trifluoromethyl)-1,2,4-oxadiazol-3-yl)benzamide] | 0.012 | > 10 | 4.7
CN1CCC(CNS(=O)(=O)c2ccc(-c3noc(C(F)(F)F)n3)cc2)C1 (stereo not drawn) [Example 115, N-((1-methylpyrrolidin-3-yl)methyl)-4-(5-(trifluoromethyl)-1,2,4-oxadiazol-3-yl)benzenesulfonamide] | 2.7 | > 10 | > 10
O=C(NCc1ccc(CN2CCOCC2)cc1)c1ccc(-c2noc(C(F)(F)F)n2)cc1 [Example 44, N-(4-(morpholinomethyl)benzyl)-4-(5-(trifluoromethyl)-1,2,4-oxadiazol-3-yl)benzamide] | 0.38 | > 10 | 5.7
CN1CC[C@@H](NC(=O)c2ccc(-c3noc(C(F)(F)F)n3)cc2)C1 [Example 153, (R)—N-(1-methylpyrrolidin-3-yl)-4-(5-(trifluoromethyl)-1,2,4-oxadiazol-3-yl)benzamide] | 0.0036 | 1.8 | 3
CCN(CC)C[C@H](C)NC(=O)c1ccc(-c2noc(C(F)(F)F)n2)cc1F [Example 127, (S)—N-(1-(diethylamino)propan-2-yl)-2-fluoro-4-(5-(trifluoromethyl)-1,2,4-oxadiazol-3-yl)benzamide] | 0.044 | > 10 | > 10
C[C@H](CN1CCOCC1)NC(=O)c1ccc(-c2noc(C(F)(F)F)n2)cc1 [Example 147, (R)—N-(1-morpholinopropan-2-yl)-4-(5-(trifluoromethyl)-1,2,4-oxadiazol-3-yl)benzamide] | 0.3 | > 10 | 6.7
CN1CCN(C(=O)Cc2ccc(-c3noc(C(F)(F)F)n3)cc2)CC1 [Example 10, 1-(4-methylpiperazin-1-yl)-2-(4-(5-(trifluoromethyl)-1,2,4-oxadiazol-3-yl)phenvyl)ethanone] | 1.3 | > 10 | 5.6
O=C(N[C@H]1CCNC1)c1ccc(-c2noc(C(F)(F)F)n2)cc1 [Example 87, (S)—N-(pyrrolidin-3-yl)-4-(5-(trifluoromethyl)-1,2,4-oxadiazol-3-yl)benzamide] | 0.3 |  | 
O=C(c1ccc(-c2noc(C(F)(F)F)n2)cc1)N1CCC(O)C1 (stereo not drawn) [Example 54, (3-hydroxypyrrolidin-1-yl)(4-(5-(trifluoromethyl)-1,2,4-oxadiazol-3-yl)phenvyl)methanone] | 2 | > 10 | > 10
O=S(=O)(Nc1cccc(Cl)c1)c1ccc(-c2noc(C(F)(F)F)n2)cc1 [Example 107, N-(3-chlorophenyl)-4-(5-(trifluoromethyl)-1,2,4-oxadiazol-3-yl)benzenesulfonamide] | 0.79 | 6.2 | 0.46

Continued, values first:

IC50 (Human recombinant HDAC4) [µM] | IC50 [1] [µM] | IC50 [2] [µM] | Compound
4.2 | > 10 | > 10 | O=C(NCCc1ccccc1)c1ccc(-c2noc(C(F)(F)F)n2)cc1 [Example 45, N-phenethyl-4-(5-(trifluoromethyl)-1,2,4-oxadiazol-3-yl)benzamide]
0.58 | > 10 | 7.6 | CCOC(=O)CNC(=O)Cc1ccc(-c2noc(C(F)(F)F)n2)cc1 [Example 8, Ethyl 2-(2-(4-(5-(trifluoromethyl)-1,2,4-oxadiazol-3-yl)phenyl)acetamido)acetate]
0.08 | 7.6 | 7.05 | CN(C)CCNC(=O)c1ccc(-c2noc(C(F)(F)F)n2)cc1 [Example 31, N-(2-(dimethylamino)ethyl)-4-(5-(trifluoromethyl)-1,2,4-oxadiazol-3-yl)benzamide]
0.012 | 2.9 | 2.6 | CCN(CC)CCNC(=O)c1ccc(-c2noc(C(F)(F)F)n2)cc1 [Example 155, N-(2-(diethylamino)ethyl)-4-(5-(trifluoromethyl)-1,2,4-oxadiazol-3-yl)benzamide]
0.16 | > 10 | 3.1 | O=S(=O)(NCCCO)c1ccc(-c2noc(C(F)(F)F)n2)cc1 [Example 116, N-(3-hydroxypropyl)-4-(5-(trifluoromethyl)-1,2,4-oxadiazol-3-yl)benzenesulfonamide]
0.0089 | > 10 | > 10 | CCN(C)C[C@@H](C)NC(=O)c1ccc(-c2noc(C(F)(F)F)n2)cc1 [Example 136, (R)—N-(1-(ethyl(methyl)amino)propan-2-yl)-4-(5-(trifluoromethyl)-1,2,4-oxadiazol-3-yl)benzamide]
0.46 | > 10 | 4.6 | O=C(NCCCn1ccnc1)c1ccc(-c2noc(C(F)(F)F)n2)cc1 [Example 40, N-(3-(1 H-imidazol-1-yl)propyl)-4-(5-(trifluoromethyl)-1,2,4-oxadiazol-3-yl)benzamide]
0.39 | > 10 | > 10 | COCCN(C)C(=O)c1ccc(-c2noc(C(F)(F)F)n2)cc1 [Example 18, N-(2-methoxyethyl)-N-methyl-4-(5-(trifluoromethyl)-1,2,4-oxadiazol-3-yl)benzamide]
0.62 | > 10 | 7.2 | C[C@@H](CO)NC(=O)c1ccc(-c2noc(C(F)(F)F)n2)cc1 [Example 50, (S)—N-(1-hydroxyypropan-2-yl)-4-(5-(trifluoromethyl)-1,2,4-oxadiazol-3-yl)benzamide]
0.99 | > 10 | > 10 | CN1CCC(CNC(=O)c2ccc(-c3noc(C(F)(F)F)n3)cc2)CC1 [Example 49, N-((1-methylpiperidin-4-yl)methyl)-4-(5-(trifluoromethyl)-1,2,4-oxadiazol-3-yl)benzamide]
 | 2.2 | 3 | CCCN(CCC)C[C@@H](C)NC(=O)c1ccc(-c2noc(C(F)(F)F)n2)cc1 [Example 137, (R)—N-(1-(dipropylamino)propan-2-yl)-4-(5-(trifluoromethyl)-1,2,4-oxadiazol-3-yl)benzamide]
